This is an account of results in patent US8962692B2, “Cysteine and cystine prodrugs to treat schizophrenia and reduce drug cravings” (Marquette University, priority 2008, dated 2015).

Data set [1] has as its system PCP-induced deficits in sensorimotor gating. In words: Prepulse inhibition of startle response; reversal of PCP-induced deficits in sensorimotor gating. To be noted: for inhibition of startle response (prepulse inhibition): difference relative to rats receiving PCP alone and/or N-acetylcysteine 30 mg/kg: compound pretreatment 60 min, prepulse 2-15 dB above background, Fisher LSD p<0.05.

For data set [2], the system named is cocaine-induced reinstatement. In words: Extinction/reinstatement paradigm: cocaine-induced reinstatement of lever pressing. The data set is classed as in vivo. The following applies: rats, cocaine 10 mg/kg IP.
A further data set deals with compulsive drug-seeking. The following applies: rodents, preclinical studies; cited from earlier work.
A further data set concerns cocaine use and craving. To be noted: cocaine abusers receiving NAC, clinical data; cited from earlier work.
For data set [3] the following is noted: human subjects; cited from earlier work.
Where [4] appears, read: rats, phencyclidine 1.25 mg/kg SC.

SMILES strings stand for the structures.

As a reminder, the melting point is the temperature of the solid-liquid transition. Consider `O=C1CNC(=O)[C@H](CS)N1` [Compound 4a, 2,5-piperazinedione, 3-(mercaptomethyl)-], for which the melting point stood at 258 °C. Moreover, the “inhibition of startle response (prepulse inhibition): difference relative to rats receiving PCP alone and/or N-acetylcysteine 30 mg/kg” value in data set [1] (setting [4]) is “significant difference”. Take `O=C1CNC(=O)[C@H](CSSC[C@H]2NC(=O)[C@H](Cc3ccccc3)NC2=O)N1` [Compound 11-a-b]: in data set [1] (setting [4]), the “inhibition of startle response (prepulse inhibition): difference relative to rats receiving PCP alone and/or N-acetylcysteine 30 mg/kg” value is “significant difference”. Turning to `CC(C)[C@H]1NC(=O)[C@H](CS)NC1=O` [Compound 4d, (6R)-3-isopropyl-6-(mercaptomethyl)piperazine-2,5-dione], the melting point is greater than 275 °C. With `CC(=O)N[C@@H](CS)C(=O)O` [N-acetyl cysteine], the cocaine-induced reinstatement entry in data set [2] (30 mg/kg IP, responding 120 min) is given as “significant reduction”; in data set [2] (60 mg/kg IP, responding 120 min), “significant reduction”; in data set [2] (given orally) it was “less effective”. The compulsive drug-seeking result with compulsive drug-seeking is reported as “effective in blocking compulsive drug-seeking”. Further, in the data set on cocaine use and craving, the “cocaine use and craving” value is “reduction in cocaine use and craving”. The safety/tolerability profile result in data set [3] was “favorable safety/tolerability profile”. Also, in data set [1] (direct delivery into the brain (prefrontal cortex)), the “phencyclidine-induced deficits in sensorimotor gating” value is on record as “reverses phencyclidine-induced deficits in sensorimotor gating”. Moreover, the “sensorimotor gating (prepulse inhibition) after PCP” value in data set [1] (rats, N-acetyl cysteine 30 mg/kg po, pretreated 60 min, phencyclidine 1.25 mg/kg SC) is on record as “failed to exhibit sensorimotor gating”. Compound `CCOC1=N[C@@H](CSCC)C(=O)N[C@@H]1Cc1ccccc1` [Compound 6b-b, (3R,6R)-6-Benzyl-5-ethoxy-3-(ethylthiomethyl)-1,6-dihydropyrazin-2(3H)-one] showed a melting point of 118 °C. Regarding `CC(C)(C)SC[C@H]1NC(=O)[C@H](CS)NC1=O` [Compound 4e, (6R)-3-(tert-butylthiomethyl)-6-(mercaptomethyl)piperazine-2,5-dione], the melting point was > 280 °C (dec.). On to `c1ccc(C2(N3CCCCC3)CCCCC2)cc1` [PCP, phencyclidine, reference compound], for which the “effect of PCP on prepulse inhibition” value in data set [1] (rats, pcp 0-2.0 mg/kg, FIG. 4) is recorded as “disrupt prepulse inhibition”. As to `CC(C)C1NC(=O)[C@@H](CSSC[C@@H]2NC(=O)CNC2=O)NC1=O` (stereo partly shown) [Compound 11-a-d], the “inhibition of startle response (prepulse inhibition): difference relative to rats receiving PCP alone and/or N-acetylcysteine 30 mg/kg” value in data set [1] (setting [4]) is “significant difference”.

For `O=C1CNC(=O)[C@H](CSSC[C@@H]2NC(=O)CNC2=O)N1` [Compound 7a, Bis[2,5-Piperazinedione, 3-(mercaptomethyl)-]], the “inhibition of startle response (prepulse inhibition): difference relative to rats receiving PCP alone and/or N-acetylcysteine 30 mg/kg” value in data set [1] (setting [4]) is recorded as “significant difference”.

As to `CCOC1=N[C@@H](CSSC[C@H]2N=C(OCC)CN=C2OCC)C(OCC)=NC1` [Compound 5a-D, Bis[(3,6-Diethoxy-2,5-dihy-dro-pyrazin-2-yl)-methanethiol]], the cocaine-induced reinstatement entry in data set [2] (1 mg/kg (p.o.), comparable to 30 mg/kg NAC) is listed as “sufficient to block cocaine-induced reinstatement”. For the same compound, in data set [1] (setting [4]), the “inhibition of startle response (prepulse inhibition): difference relative to rats receiving PCP alone and/or N-acetylcysteine 30 mg/kg” value is listed as “significant difference”. `CCOC1=N[C@@H](CS)C(OCC)=NC1` [Compound 5a, (3,6-Diethoxy-2,5-dihydro-,pyrazin-2-yl)-methanethiol]: the “inhibition of startle response (prepulse inhibition): difference relative to rats receiving PCP alone and/or N-acetylcysteine 30 mg/kg” value in data set [1] (setting [4]) is recorded as “significant difference”. Compound `O=C1N[C@@H](CSSc2ccccc2)C(=O)N2CCC[C@H]12` [Compound 3b-c, (3R,8aR)-3-((phenyldisulfanyl)methyl)hexahydropyrrolo[1,2-a]pyrazine-1,4-dione] yielded a melting point of 120 °C.

`O=C1CNC(=O)[C@@H](CSC(c2ccccc2)(c2ccccc2)c2ccccc2)N1` (stereo in doubt) [Compound 3c-a, 3-Tritylsulfanylmethyl-piperazine-2,5-dione] registered a melting point of 225 to 227 °C.
